IC50 and viability data for nine compounds are collected here from ChEMBL document CHEMBL5096143, “Current status in the discovery of dual BET/HDAC inhibitors” (Bioorg Med Chem Lett, 2021).

pIC50: −log10 of the molar value. Bounds are passed on as bounds.

As usually defined, the pIC50 is the negative decadic logarithm of the IC50, by convention in mol/L. Usually IC50 stands for the point on the concentration scale where inhibition reaches its midpoint. Low values mean inhibition by little substance, high ones a need for much substance.

For experiment [1], the target named is Histone deacetylase 1 (Homo sapiens, UniProt Q13547). In words: Inhibition of HDAC1 (unknown origin).
Experiment [2] has as its target T1, Bromodomain-containing protein 4 (Homo sapiens, UniProt O60885). In words: Inhibition of BRD4-BD1 (unknown origin).
Experiment [3] has as its target T1, Bromodomain-containing protein 4. Description: Inhibition of GST-tagged BRD4 (unknown origin) by HTRF assay. (TR-FRET usually uses a lanthanide donor and a delayed reading to cut background.)
Experiment [4] concerns the target T2, Bromodomain-containing protein 2 (Homo sapiens, UniProt P25440). In words: Inhibition of recombinant BRD2-BD1 (unknown origin) by TR-FRET assay.
The target in experiment [5] is T2, Bromodomain-containing protein 2. Description: Inhibition of recombinant BRD2-BD2 (unknown origin) by TR-FRET assay.
Experiment [6] addresses T3, Bromodomain-containing protein 3 (Homo sapiens, UniProt Q15059). In words: Inhibition of recombinant BRD3-BD1 (unknown origin) by TR-FRET assay.
Experiment [7] concerns the target T3, Bromodomain-containing protein 3. Description: Inhibition of recombinant BRD3-BD2 (unknown origin) by TR-FRET assay.
Experiment [8] deals with T4, Bromodomain testis-specific protein (Homo sapiens, UniProt Q58F21). In words: Inhibition of recombinant BRDT-BD1 (unknown origin) by TR-FRET assay.
Experiment [9] deals with T4, Bromodomain testis-specific protein. In words: Inhibition of recombinant BRDT-BD2 (unknown origin) by TR-FRET assay.
For experiment [10], the target named is Histone deacetylase 3 (Homo sapiens, UniProt O15379). Description: Inhibition of human HDAC3 using Boc-Lys(Ac)-AMC as substrate by fluorescence based assay.
Experiment [11] deals with T1, Bromodomain-containing protein 4. Description: Inhibition of BRD4-BD2 (unknown origin).
Experiment [12] concerns the target Histone deacetylase. Description: Inhibition of HDAC (unknown origin) by ELISA. In kind it is protein assay, Homo sapiens. (ELISA stands for enzyme-linked immunosorbent assay.)
In experiment [13] the test system is U-937. In words: Cytotoxicity against human U-937 cells assessed as cell viability at 3 uM by MTT assay relative to control. Format: functional. The conditions noted are these: read-out: Activity.
Experiment [14] concerns the target T1, Bromodomain-containing protein 4.
Description: Inhibition of BRD4 (unknown origin) by ELISA

Histone deacetylase 1, sequence (Q13547 whole entry): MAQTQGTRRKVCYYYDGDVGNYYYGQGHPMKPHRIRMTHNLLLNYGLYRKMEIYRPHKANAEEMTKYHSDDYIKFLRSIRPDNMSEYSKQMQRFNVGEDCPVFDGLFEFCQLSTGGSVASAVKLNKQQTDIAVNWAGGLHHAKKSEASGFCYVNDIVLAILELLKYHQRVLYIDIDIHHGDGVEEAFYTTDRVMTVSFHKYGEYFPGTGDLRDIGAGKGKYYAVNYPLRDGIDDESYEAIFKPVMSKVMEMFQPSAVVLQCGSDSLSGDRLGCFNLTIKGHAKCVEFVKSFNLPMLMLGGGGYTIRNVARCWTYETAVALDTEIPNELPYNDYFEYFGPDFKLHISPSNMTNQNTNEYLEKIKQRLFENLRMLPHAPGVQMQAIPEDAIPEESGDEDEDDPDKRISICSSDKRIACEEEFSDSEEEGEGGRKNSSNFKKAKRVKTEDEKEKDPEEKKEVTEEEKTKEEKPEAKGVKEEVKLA
T3 sequence (Q15059 whole entry): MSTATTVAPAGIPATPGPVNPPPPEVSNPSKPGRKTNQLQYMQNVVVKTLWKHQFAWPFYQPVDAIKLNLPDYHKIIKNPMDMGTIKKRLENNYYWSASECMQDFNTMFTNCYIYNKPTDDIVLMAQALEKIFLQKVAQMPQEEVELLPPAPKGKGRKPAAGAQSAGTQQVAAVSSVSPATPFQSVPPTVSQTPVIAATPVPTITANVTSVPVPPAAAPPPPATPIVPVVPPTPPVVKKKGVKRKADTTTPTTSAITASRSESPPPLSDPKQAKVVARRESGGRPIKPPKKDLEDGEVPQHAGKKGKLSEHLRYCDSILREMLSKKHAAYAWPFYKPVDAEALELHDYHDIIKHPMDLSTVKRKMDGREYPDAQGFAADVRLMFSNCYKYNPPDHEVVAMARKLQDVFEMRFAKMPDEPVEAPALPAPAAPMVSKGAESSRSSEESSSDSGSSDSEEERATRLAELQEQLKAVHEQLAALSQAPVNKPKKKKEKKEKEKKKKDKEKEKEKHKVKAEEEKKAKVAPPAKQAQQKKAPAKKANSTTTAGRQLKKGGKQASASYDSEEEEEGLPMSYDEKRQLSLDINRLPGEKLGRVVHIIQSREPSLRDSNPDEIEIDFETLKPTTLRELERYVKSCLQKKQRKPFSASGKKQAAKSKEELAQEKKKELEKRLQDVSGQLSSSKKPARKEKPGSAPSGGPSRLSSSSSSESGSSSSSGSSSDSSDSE
T2 sequence (P25440 whole entry): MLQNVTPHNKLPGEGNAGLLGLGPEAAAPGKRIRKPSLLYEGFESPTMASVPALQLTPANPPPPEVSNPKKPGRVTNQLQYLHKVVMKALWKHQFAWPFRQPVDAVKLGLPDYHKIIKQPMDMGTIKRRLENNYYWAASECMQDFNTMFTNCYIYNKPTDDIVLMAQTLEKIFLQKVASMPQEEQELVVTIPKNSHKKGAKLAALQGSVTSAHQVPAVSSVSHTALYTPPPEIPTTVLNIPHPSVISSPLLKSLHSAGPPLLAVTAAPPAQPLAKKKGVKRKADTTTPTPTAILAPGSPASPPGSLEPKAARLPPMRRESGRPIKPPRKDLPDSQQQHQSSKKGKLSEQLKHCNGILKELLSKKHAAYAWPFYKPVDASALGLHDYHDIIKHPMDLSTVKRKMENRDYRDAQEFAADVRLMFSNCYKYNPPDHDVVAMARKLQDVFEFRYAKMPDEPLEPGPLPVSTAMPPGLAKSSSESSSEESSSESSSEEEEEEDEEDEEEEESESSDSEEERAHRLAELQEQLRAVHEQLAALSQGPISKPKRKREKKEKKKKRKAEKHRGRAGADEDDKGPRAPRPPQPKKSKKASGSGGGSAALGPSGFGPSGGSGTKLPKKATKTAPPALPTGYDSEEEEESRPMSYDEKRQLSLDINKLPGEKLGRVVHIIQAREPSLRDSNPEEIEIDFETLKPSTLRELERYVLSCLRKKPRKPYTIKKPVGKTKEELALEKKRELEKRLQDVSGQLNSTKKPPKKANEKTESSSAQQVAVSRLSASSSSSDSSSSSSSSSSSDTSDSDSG
Histone deacetylase 3, sequence (O15379 whole entry): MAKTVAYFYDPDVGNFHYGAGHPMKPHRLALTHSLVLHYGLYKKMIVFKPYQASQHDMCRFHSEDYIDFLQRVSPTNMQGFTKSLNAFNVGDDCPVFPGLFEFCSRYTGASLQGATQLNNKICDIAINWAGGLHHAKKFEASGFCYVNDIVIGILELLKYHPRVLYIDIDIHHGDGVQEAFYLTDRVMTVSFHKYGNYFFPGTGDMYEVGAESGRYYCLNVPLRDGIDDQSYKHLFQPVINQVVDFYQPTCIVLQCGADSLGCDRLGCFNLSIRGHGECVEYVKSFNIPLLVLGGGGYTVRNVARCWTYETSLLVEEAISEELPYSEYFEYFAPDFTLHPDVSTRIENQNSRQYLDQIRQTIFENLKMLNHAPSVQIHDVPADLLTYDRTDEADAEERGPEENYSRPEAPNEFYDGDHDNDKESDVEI

Consider `CC(=O)N1c2ccc(-c3ccc(NC(=O)CCCCCCC(=O)NO)cc3)cc2[C@H](NC(=O)OC(C)C)C[C@@H]1C`, for which the pIC50 in experiment [1] is 7.30; in experiment [2], 6.60.

Regarding `COC(c1c(F)cccc1Cl)c1c[nH]c2ncc(-c3c(C)noc3C)cc12` (stereo not drawn), the pIC50 in [3] was over 6.00.

Turning to `Cc1sc2c(c1C)C(c1ccc(Cl)cc1)=N[C@@H](CC(=O)Nc1ccc(C(=O)NO)cc1)c1nnc(C)n1-2`, the negative logarithm of the IC50 (pIC50) in [4], in [5], in experiment [6], in [7], in experiment [8] and in experiment [9] was 7.96 throughout.

The compound `O=C(CCCCCCn1cc(Cc2ccccc2)c2ccccc21)NO` had a pIC50 in experiment [10] of 7.22.

Take `Cc1sc2c(c1C)C(c1ccc(Cl)cc1)=N[C@@H](CC(=O)NCc1ccc(/C=C/C(=O)NO)cc1)c1nnc(C)n1-2`: the pIC50 in experiment [1] is under 4.70; in experiment [2] it was 5.87; in [11], 5.80.

`Cc1sc2c(c1C)C(c1ccc(Cl)cc1)=N[C@@H](CC(=O)Nc1ccc(NC(=O)CCCCCCC(=O)NO)cc1)c1nnc(C)n1-2`: the values for the negative logarithm of the IC50 (pIC50) in experiment [1], in experiment [2] and in experiment [11] were 5.95, 5.34 and 4.96, respectively.

With `Cc1sc2c(c1C)C(c1ccc(Cl)cc1)=N[C@@H](CC(=O)Nc1ccc(C(=O)Nc3ccccc3N)cc1)c1nnc(C)n1-2`, the pIC50 in experiment [1] is 6.54; in [2] it was 6.14; in experiment [11], 7.13.

Take `Cc1sc2c(c1C)C(c1ccc(Cl)cc1)=N[C@@H](CC(=O)NCCCC(=O)Nc1ccccc1N)c1nnc(C)n1-2`: the half-inhibitory concentration (IC50) in experiment [12] is listed as 31.24 nM. Moreover, the viability at 3 µM in experiment [13] turned out to be 16.1%. For the same compound, the negative-log IC50 (pIC50) in experiment [14] is 7.53.

Take `O=C(CCCCCCC(=O)Nc1ccccc1)NO` [VORINOSTAT]: in [14], the negative logarithm of the IC50 (pIC50) was 7.37.
